For assay [1], the target named is GSK-3β (Homo sapiens, UniProt P49841). The assay can be described thus: GSK-3β kinase assay (calliper mobility shift assay). The format is biochemical. The note with it: mean ± SD from two separate experiments; calliper mobility shift assay.
Assay [2] concerns the target T1, CDK5/p35 (Homo sapiens, UniProt Q00535).
T1 construct: purchased Eurofins Cerep SA (contract assay service)
In words: Kinase selectivity screen (enzymatic radioactive assay, Eurofins Cerep). The format is biochemical. The note with it: 1.0 μM compound, Km ATP. The text has this: (§1) The potent GSK-3β inhibitor 16b was next subjected to kinase selectivity assay. A panel of kinases which were structurally related to GSK-3β was used for the GSK-3β selectivity studies[26]^,[37]^,[38]. […] GSK-3α and GSK-3β are known to share a 98% sequence homology at the catalytic site[42]. CDK5 and GSK-3 belong to the CMGC protein kinase family, which shared highly homology with each other[43]^,[44]. CDK5 is known abnormally activated and also responsible for the tau hyperphosphorylation in AD[45]. It was known that Aβ could increase CK2 activity, which in turn accelerated the tau phosphorylation in AD[46]. Therefore, the inhibition of CDK5 and CK2 by 16b may be beneficial for its anti-AD activities.
(§2) Figure 3. Effects of compound 16b on the activities of 21 protein kinases in vitro. Protein kinases were of human origin and assayed in the presence of 1.0 μM compound 16b or vehicle (DMSO). The enzymatic activity was measured in the presence of Km ATP. Kinase activities were given as the mean of twice determinations. AMPKα1, AMP-activated protein kinase 1; AMPKα2, AMP-activated protein kinase 2; CDK4/cyclinD3, cyclin-dependent protein kinase-4/cyclinD3; CDK5/p35, cyclin-dependent protein kinase-5/p35; CHK1, checkpoint kinase-1; CK2, casein kinase-2; Lck, lymphocyte kinase; MSK1, mitogen- and stress-activated protein kinase-1; p70S6K, p70 ribosomal protein S6 kinase; PDK1, 3-phosphoinositide-dependent protein kinase-1; PKA, cAMP-dependent protein kinase; PKBα, protein kinase Bα; PKCα, protein kinase Cα; PRAK, p38-regulated/activated kinase; SAPK2a, stress-activated protein kinase-2a; SAPK2b, stress-activated protein kinase-2b; SAPK3, stress-activated protein kinase-3; SAPK4, stress-activated protein kinase-4; SGK, serum- and glucocorticoid-induced protein kinase.
(§3) Compound 16b was evaluated for kinase selectivity at Eurofins Cerep SA (Celle-L’Evescault, France) in enzymatic radioactive assays in a panel of 21 different kinases (including GSK-3β) from diverse families. […] The enzymatic activity was measured in the presence of Km ATP.

The target of assay [3] is T2, CK2 (Homo sapiens, UniProt P68400).
T2 construct: purchased Eurofins Cerep SA (contract assay service)
The description is as above. The format is biochemical. The note with it: 1.0 μM compound, Km ATP.
Text: as §1, §2, §3

In assay [4] the target is T3, GSK-3α (Homo sapiens, UniProt P49840).
T3 construct: purchased Eurofins Cerep SA (contract assay service)
The assay is described as above. The format is biochemical. The note with it: 1.0 μM compound, Km ATP.
Text: as §1, §2, §3

Assay [5] deals with β-catenin. The assay can be described thus: Western blot of β-catenin abundance in SH-SY5Y cells. It is filed as cell-based, human. The note with it: 2.5 h, control 0.41. The text has this:
Figure 6. (A) The effect of 16b on phosphorylation of GSK-3β at Ser9; (B) the effect of 16b on β-catenin abundance. Protein expressions were detected by immunoblot analysis with a specific antibody. Values are reported as the mean ± SD of three independent experiments. *p < 0.05, **p < 0.01, ***p < 0.001 vs control.
GSK-3β is implicated in the Wnt/β-catenin signalling pathway, which plays an important role in neuronal development. GSK-3β, together with adenomatous polyposis coli (APC), Axin, and casein kinase 1 (CK1), form a ploy-protein complex that regulates the hyperphosphorylation of β-catenin. Phospho-β-catenin is recognised by ubiquitin and degraded by proteasomes. Pharmacological inhibition of GSK-3β leads to the activation and stabilisation of β-catenin, subsequently resulting in the accumulation of β-catenin in cytoplasm. The activation of Wnt/β-catenin signalling pathway can promote synaptic growth, alleviate spatial memory impairment and neurodegeneration in Alzheimer’s models. Moreover, β-catenin also plays a pivotal role in cell adhesion complexes. The combination of β-catenin and N-cadherin elevates cell-to-cell interactions which is prerequisite for neuronal differentiation[61]^,[62]. Therefore, we further evaluated the effect of 16b on β-catenin. In agreement with its GSK-3β inhibitory activity on SH-SY5Y cells, 16b increased β-catenin abundance in a dose-dependent manner. […]
SH-SY5Y cells (1 × 10^6) were seeded in 12-well plates (Corning, Los Altos, MA, USA) and incubated with compound 16b or LiCl at the indicated concentrations for 2.5 h at 37 °C in 5% CO2. […] The protein quantification was determined using a BCA protein assay kit (Jiangsu KeyGEN BioTECH Co., Ltd., Nanjing, China). […] The blots were washed by TBST for 20 min and detected with ECL chemiluminescent reagent (Jiangsu KeyGEN BioTECH Co., Ltd., Nanjing, China) for 3 min. Pixel intensity was quantitated using gel imaging system (SYNGENE G:BOX/iChemi XR5, ISS, San Diego, CA, US) and Gel-Pro32 software (Media Cybernetics, Bethesda, MD, USA). […]
(In general: A western blot detects proteins with antibodies after separation by electrophoresis.)

T3 sequence (P49840 whole entry): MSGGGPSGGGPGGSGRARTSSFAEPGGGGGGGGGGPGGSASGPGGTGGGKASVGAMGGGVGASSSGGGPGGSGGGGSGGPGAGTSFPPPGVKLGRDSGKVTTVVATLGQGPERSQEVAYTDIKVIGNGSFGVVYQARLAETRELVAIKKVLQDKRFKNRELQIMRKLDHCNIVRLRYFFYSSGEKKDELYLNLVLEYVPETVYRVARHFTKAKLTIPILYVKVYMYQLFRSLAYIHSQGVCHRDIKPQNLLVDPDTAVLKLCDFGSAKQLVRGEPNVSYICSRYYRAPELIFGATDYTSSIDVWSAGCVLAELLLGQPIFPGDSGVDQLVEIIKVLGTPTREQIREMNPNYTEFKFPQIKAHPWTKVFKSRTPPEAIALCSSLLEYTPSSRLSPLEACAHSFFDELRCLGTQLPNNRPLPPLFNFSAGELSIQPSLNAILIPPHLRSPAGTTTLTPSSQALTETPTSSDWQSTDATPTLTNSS
Chain of GSK-3β (P49841 whole entry): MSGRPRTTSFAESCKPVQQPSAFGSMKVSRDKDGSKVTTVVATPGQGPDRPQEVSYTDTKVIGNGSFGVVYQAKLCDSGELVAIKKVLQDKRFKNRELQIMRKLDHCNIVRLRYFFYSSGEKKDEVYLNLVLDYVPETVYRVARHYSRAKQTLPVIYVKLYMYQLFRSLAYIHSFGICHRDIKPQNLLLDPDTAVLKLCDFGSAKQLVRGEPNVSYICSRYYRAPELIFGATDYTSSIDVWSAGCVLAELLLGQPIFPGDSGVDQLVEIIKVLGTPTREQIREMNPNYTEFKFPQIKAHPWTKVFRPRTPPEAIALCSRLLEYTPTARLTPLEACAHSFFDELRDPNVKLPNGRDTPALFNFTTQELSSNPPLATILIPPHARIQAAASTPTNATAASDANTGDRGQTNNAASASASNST
T1 sequence (Q00535 whole entry): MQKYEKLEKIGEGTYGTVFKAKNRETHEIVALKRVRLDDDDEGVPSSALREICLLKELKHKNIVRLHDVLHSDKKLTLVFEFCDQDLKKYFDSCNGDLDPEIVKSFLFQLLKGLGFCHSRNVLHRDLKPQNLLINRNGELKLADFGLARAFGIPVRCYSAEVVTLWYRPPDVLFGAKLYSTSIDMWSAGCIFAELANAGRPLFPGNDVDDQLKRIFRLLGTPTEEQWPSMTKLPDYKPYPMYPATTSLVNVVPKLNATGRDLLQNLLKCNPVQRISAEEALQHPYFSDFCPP
T1 sequence (Q15078 whole entry partner): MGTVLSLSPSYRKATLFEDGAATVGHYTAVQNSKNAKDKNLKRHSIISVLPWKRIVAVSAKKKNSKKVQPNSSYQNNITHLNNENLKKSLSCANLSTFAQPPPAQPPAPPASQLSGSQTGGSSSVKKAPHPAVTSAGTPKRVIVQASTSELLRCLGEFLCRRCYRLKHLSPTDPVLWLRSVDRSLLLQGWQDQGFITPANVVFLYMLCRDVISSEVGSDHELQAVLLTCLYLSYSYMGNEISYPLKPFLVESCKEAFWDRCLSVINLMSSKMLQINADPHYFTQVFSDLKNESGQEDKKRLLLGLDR
T2 sequence (P68400 whole entry): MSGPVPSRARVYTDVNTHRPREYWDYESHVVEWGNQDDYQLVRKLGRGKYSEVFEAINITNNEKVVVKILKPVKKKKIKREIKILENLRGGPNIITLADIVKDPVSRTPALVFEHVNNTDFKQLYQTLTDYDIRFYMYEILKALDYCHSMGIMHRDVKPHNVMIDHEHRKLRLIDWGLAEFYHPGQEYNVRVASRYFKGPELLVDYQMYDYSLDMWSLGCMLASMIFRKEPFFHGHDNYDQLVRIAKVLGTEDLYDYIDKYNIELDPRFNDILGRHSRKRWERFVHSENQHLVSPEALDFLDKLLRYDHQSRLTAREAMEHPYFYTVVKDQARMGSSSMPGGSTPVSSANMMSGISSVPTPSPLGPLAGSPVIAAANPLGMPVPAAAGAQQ

The IC50 is the concentration at which inhibition is half-maximal. For the molecule `CC(C)C(=O)Nc1n[nH]c2cc(-c3cccnc3)sc12` [Compound 16b, N-(5-(pyridin-3-yl)-1H-thieno[3,2-c]pyrazol-3-yl)isobutyramide], the IC50 in assay [1] was 3.1 ± 0.1 nM. In addition, the “selectivity over CDK5” value in assay [2] is reported as “low selectivity”. Also, the “selectivity over CK2” value in assay [3] is on record as “moderate selectivity”. In addition, in assay [4], the “selectivity over GSK-3α” value was “low selectivity”. Further, the β-catenin/GADPH ratio is 0.54 in assay [5] (5 μM), 0.64 in assay [5] (10 μM) and 0.76 in assay [5] (20 μM).

(Values after PMC9225722, “Synthesis and biological evaluation of thieno[3,2-c]pyrazol-3-amine derivatives as potent glycogen synthase kinase 3β inhibitors for Alzheimer’s disease” (Journal of Enzyme Inhibition and Medicinal Chemistry, 2022).)
